In patent US6476019B1, “Spirocyclic ligands for sigma receptors, and libraries and methods of use thereof” (Sepracor Inc., priority 1999, dated 2002):
Values after ≈ are worked out from the molar mass of the structure shown. Read-outs that look alike come from different tables or passages of the source.

Columns and labels:
CYP2D6 = CYP2D6 (Homo sapiens, UniProt P10635); experiment: In Vitro Metabolism (isozymes of P450) CYP2D6
DNA Synthesis = experiment: Safety Assessment: DNA Synthesis
Caspase-3 = experiment: Safety Assessment: Caspase-3 Induction
Cell Viability = experiment: Safety Assessment: Cell Viability
[1] = molecular target: T1, guinea pig sigma receptor (Cavia porcellus, UniProt Q60492); experiment: Guinea pig sigma receptor assay; type: binding; details: read-out: IC50 Against Guinea Pig Sigma Receptor
T1 construct: having guinea pig as a receptor source; from tissue; host or cells: guinea pig
Experimental: (§1) The ability of test compounds to displace sigma ligands in vitro was determined by the methods of de Costa et al. (FEBS Lett. 251:53 (1989)) and De Haven-Hudkine et al. (Eur. J. Pharmacol. 227:372 (1992)) having guinea pig as a receptor source. Whereas, the methods of Gamapatju et al. (J. Pharm.&Exp. 289:251 (1999)) were utilized for human sigma receptors.

CYP2C19 = CYP2C19 (Homo sapiens, UniProt P33261); experiment: In Vitro Metabolism (isozymes of P450) CYP2C19
CYP3A4 = CYP3A4 (Homo sapiens, UniProt P08684); experiment: In Vitro Metabolism (isozymes of P450) CYP3A4
sigma-1 receptors = sigma-1 receptors (Cavia porcellus, UniProt Q60492); experiment: Behavioral receptor assays: sigma-1; type: binding; details: guinea pig
Experimental: (§2) Various compounds of the present invention (19, 31, and 32) were evaluated in a group of assays based on mammalian cellular receptors associated with behavior. The group consisted of assays base on human dopamine D1, D2L, D3, D4.2, D4.4, D4.7, and D5 receptors, and the transporter; human serotonin 5-HT1A, 5-HT1B, 5-HT1D, 5-HT2A, 5-HT2B, 5-HT2C, 5-HT3, 5-HT5A, 5-HT6, and 5-HT7 receptors, and the human serotonin transporter; guinea pig 5-HT4 and sigma-1 receptors; rat sigma-2 and muscarinic receptors; and human NK1-3 receptors. The following table presents a subset of the results of these assays.

human sigma receptor = human sigma receptor (Homo sapiens, UniProt Q99720); experiment: Human sigma receptor assay; type: binding; details: read-out: IC50 Against Human Sigma Receptor
Experimental: as §1

Membrane Integrity = experiment: Safety Assessment: Membrane Integrity
Permeability = type: in vitro ADME; details: not told; read-out: Permeability PupperX10^6 cm/s
[2] = Pharmacokinetics in a single rat; type: in vivo; details: for concentration at 4 h: brain, 4 h post dose, read-out: Brain Tissue Distribution (4 h post dose, ng/g tissue); for concentration at 4 h / clearance / AUC(0-t): iv; for concentration at 4 h / AUC(0-t) / T1/2α / T1/2β: rat; for clearance / AUC(0-t): plasma; for clearance / Vb / Vc: rat (270 g); for AUC(0-t): read-out: AUC0-4h
Experimental: Pharmacokinetic properties of the compounds were evaluated in a single rat after dosing 4 and 5 mg/kg, respectively. The dose was well tolerated by the animal. The data below is based on a 270 g rat. Numerous time points were taken during a 4 hour period where a 0.1 mL volume of plasma was transferred to a 1.4 mL polypropylene vial and 0.4 mL of chilled methanol (0° C.) was added. The resulting percipitate was centrifuged at 7000 rpm at 4° C. for 5 min. The resulting supernatant was analysed by HPLC using a sample volume of 0.05 mL alongside standard solutions prepared by “spiking” known amounts of the compounds into the control plasma. Standard solution of the compounds were prepared in methanol.

Protein Synthesis = experiment: Safety Assessment: Protein Synthesis
CYP1A2 = molecular target: T2, CYP1A2 (Homo sapiens, UniProt P05177); experiment: In Vitro Metabolism (isozymes of P450) CYP1A2
T2 sequence (P05177 1-516): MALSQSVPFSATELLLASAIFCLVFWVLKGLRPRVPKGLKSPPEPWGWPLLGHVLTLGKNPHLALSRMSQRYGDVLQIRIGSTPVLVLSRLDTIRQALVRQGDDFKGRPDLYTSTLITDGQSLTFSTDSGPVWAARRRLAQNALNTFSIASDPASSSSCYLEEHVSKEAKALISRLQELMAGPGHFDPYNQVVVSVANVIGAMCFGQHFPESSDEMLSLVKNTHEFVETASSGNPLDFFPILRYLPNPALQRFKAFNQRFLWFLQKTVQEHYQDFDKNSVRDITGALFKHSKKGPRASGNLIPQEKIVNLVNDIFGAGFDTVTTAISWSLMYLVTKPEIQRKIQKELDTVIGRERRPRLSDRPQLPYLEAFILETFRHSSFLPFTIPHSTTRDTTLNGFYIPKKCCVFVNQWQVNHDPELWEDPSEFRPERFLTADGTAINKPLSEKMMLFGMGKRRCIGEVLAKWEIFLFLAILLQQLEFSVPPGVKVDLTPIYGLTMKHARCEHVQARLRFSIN

GSH Level = experiment: Safety Assessment: GSH Level
RedOx State = experiment: Safety Assessment: RedOx State
CYP2C9 = CYP2C9 (Homo sapiens, UniProt P11712); experiment: In Vitro Metabolism (isozymes of P450) CYP2C9
[3] = molecular target: T3, sigma-1 receptor (guinea pig brain) (Cavia porcellus, UniProt Q60492); experiment: Antagonism of haloperidol binding to guinea pig sigma-1 receptors; details: sigma-1, guinea pig brain; for % Inhibition: test concentration not given
T3 construct: from tissue; host or cells: guinea pig brain

sigma-2 = sigma-2 (Rattus norvegicus, UniProt Q5U3Y7); experiment: Behavioral receptor assays: sigma-2; type: binding; details: read-out: Receptors (IC50) sigma-2
Experimental: as §2

T3 sequence (Q60492 whole entry): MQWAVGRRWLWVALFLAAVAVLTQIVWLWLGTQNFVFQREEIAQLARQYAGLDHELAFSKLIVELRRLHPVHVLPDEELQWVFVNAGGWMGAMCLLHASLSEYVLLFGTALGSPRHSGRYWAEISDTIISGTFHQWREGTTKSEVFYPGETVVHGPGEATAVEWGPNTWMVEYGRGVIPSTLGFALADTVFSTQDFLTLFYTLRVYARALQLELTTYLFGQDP
sigma-2, sequence (Q5U3Y7 whole entry): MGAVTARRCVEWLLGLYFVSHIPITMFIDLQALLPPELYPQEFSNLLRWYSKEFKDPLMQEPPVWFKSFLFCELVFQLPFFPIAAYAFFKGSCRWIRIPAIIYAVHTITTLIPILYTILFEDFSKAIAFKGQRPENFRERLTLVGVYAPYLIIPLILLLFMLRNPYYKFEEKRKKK
CYP3A4, sequence (P08684 whole entry): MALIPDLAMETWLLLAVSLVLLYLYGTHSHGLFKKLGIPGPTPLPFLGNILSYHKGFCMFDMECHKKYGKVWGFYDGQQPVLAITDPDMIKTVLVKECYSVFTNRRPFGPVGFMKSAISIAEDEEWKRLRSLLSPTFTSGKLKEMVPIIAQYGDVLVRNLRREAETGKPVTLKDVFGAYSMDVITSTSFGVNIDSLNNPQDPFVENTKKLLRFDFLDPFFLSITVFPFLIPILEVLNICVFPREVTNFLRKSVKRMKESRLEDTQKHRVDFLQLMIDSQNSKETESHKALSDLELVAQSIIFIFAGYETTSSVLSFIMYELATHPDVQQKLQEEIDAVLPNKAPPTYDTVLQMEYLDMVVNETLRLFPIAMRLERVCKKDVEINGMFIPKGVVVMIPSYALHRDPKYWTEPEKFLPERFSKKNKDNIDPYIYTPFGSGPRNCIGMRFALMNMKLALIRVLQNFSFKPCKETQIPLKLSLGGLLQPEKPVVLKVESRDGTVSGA
sigma-1 receptors, sequence (Q60492 whole entry): as the sequence (Q60492 whole entry) above
T1 sequence (Q60492 whole entry): as above
CYP2C9, sequence (P11712 whole entry): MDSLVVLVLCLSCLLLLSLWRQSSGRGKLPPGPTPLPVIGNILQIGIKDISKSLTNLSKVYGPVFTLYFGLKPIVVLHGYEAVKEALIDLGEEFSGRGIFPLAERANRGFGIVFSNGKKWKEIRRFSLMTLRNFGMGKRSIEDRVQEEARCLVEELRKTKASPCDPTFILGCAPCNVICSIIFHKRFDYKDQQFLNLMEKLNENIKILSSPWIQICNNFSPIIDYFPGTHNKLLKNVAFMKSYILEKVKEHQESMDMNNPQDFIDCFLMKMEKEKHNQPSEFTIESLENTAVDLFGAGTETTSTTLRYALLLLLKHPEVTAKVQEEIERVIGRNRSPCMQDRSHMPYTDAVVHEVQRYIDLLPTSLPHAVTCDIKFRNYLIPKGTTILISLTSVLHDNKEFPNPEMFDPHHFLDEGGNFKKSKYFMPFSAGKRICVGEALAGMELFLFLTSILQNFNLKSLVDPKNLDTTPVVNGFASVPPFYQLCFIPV
CYP2C19, sequence (P33261 whole entry): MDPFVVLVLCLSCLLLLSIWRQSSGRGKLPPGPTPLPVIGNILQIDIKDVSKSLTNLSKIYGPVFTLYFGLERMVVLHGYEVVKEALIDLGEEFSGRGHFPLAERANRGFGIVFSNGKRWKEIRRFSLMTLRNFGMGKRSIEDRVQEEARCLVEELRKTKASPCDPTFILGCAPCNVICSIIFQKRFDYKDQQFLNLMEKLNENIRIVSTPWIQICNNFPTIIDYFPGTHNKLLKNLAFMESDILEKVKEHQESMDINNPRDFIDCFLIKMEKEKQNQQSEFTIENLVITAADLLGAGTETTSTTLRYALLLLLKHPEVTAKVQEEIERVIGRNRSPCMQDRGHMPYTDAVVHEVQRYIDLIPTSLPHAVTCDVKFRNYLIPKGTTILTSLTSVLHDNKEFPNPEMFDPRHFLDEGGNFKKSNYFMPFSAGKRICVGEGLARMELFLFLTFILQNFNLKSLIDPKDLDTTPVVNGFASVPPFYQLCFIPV
human sigma receptor, sequence (Q99720 whole entry): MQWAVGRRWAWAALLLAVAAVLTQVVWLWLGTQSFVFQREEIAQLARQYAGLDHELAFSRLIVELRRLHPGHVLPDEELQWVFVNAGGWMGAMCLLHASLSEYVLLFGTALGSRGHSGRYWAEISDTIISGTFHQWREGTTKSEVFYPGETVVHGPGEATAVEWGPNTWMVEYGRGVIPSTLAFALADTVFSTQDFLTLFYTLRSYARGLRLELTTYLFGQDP
CYP2D6, sequence (P10635 whole entry): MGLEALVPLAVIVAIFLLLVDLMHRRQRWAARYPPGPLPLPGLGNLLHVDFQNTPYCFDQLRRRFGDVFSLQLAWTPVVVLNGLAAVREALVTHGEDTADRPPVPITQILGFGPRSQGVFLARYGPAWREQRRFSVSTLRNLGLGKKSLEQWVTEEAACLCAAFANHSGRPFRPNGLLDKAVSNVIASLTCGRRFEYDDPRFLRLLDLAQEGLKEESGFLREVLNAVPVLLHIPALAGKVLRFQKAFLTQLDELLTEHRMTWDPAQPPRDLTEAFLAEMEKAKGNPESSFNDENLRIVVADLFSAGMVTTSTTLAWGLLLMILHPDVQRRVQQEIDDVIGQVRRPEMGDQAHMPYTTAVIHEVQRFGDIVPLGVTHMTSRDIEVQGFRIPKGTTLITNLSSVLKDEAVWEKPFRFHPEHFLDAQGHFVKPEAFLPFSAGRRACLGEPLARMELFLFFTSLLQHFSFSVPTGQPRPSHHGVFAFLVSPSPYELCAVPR

Row | SMILES | CYP2D6 (CYP2D6) [% inhibition] | DNA Synthesis (DNA Synthesis) [% inhibition] | Caspase-3 Induction % Induction (Caspase-3) [% Induction] | Cell Viability (Cell Viability) [% inhibition] | IC50 [1] [nM] | Metabolic Stability (% parent remaining) (Metabolic Stability) | CYP2C19 (CYP2C19) [% inhibition] | fraction unbound (Protein Binding) | CYP3A4 (CYP3A4) [% inhibition] | IC50 (sigma-1 receptors) [nM] | IC50 (human sigma receptor) [nM] | Membrane Integrity (Membrane Integrity) [% inhibition] | Papp (Permeability) [×10⁻⁶ cm/s] | solubility (Solubility) [µM] | Protein Synthesis (Protein Synthesis) [% inhibition] | CYP1A2 (CYP1A2) [% inhibition] | GSH Level (% Control) (GSH Level) | RedOx State (RedOx State) [% inhibition] | CYP2C9 (CYP2C9) [% inhibition] | Log D7.5 (Log D7.5) | other results
1 | OC1CCC2(CCN(Cc3ccc(F)cc3)CC2)Nc2ccccc21 (racemic) [Compound 32, 1′-(4-fluorobenzyl)-3,4-dihydrospiro[5H-1-benzazepine-2(1H)-4′-piperidin]-5ol] | 102 | <10 | <10 | <10 | < 10 | 1 | 42 | < 0.01 | 67 | < 10 | < 100 | <10 | 22.4 | 83 (≈ 28.3 µg/mL) | <10 | 20 | <10 | 17 | 11 | 3.7 | concentration at 4 h ([2]; 5 mg/kg i.v.): 134 ng/g; clearance ([2]; 5 mg/kg i.v.): 31.7 mL/min; AUC(0-t) ([2]; 5 mg/kg i.v., 10% hydroxypropyl-p-cyclodextrin): 700 ng·h/mL; Vb ([2]; 5 mg/kg i.v.): 42 L; Vc ([2]; 5 mg/kg i.v.): 1.1 L; T1/2α ([2]; 5 mg/kg i.v.): 12.6 min; T1/2β ([2]; 5 mg/kg i.v.): 120 min; IC50 [3]: < 10 nM; % Inhibition [3]: >50%; IC50 (sigma-2): < 1000 nM
2 | O=C1CCC2(CCN(Cc3ccc(F)cc3)CC2)Nc2ccccc21 [Compound 31, 1′-(4-fluorobenzyl)-3,4-dihydrospiro[5H-1-benzazepine-2(1H)-4′-piperidin]-5-one] | 44 | <10 | <10 | <10 | < 10 | 44 | 28 | 0.04 | 22 | < 10 | < 100 | <10 | 22.9 | 192 (≈ 65 µg/mL) | 65 | <10 | <10 | 28 | <10 | 2.19 | concentration at 4 h ([2]; 4 mg/kg i.v.): 70 ng/g; clearance ([2]; 4 mg/kg i.v.): 10.2 mL/min; AUC(0-t) ([2]; 4 mg/kg i.v., Peg400:Dextrose (2:3 v/v)): 1480 ng·h/mL; Vb ([2]; 4 mg/kg i.v.): 0.65 L; Vc ([2]; 4 mg/kg i.v.): 0.23 L; T1/2α ([2]; 4 mg/kg i.v.): 7.2 min; T1/2β ([2]; 4 mg/kg i.v.): 48 min; IC50 [3]: < 10 nM; % Inhibition [3]: >50%; IC50 (sigma-2): < 1000 nM
